The subject of one assay is cyclin D1. The experiment in a line: Cyclin expression, Western blotting: cyclin D1. In kind it is cell-based, human. The note with it: HUVEC; 1, 5, 10, 25 μM; 10 ng/mL VEGF; 12 hours. The method, then:
(§1) 3×10^5 HUVEC were placed on a 60 mm plate and cultured for 24 hours. After washing twice with M199 medium (Invitrogen, USA), the cells were cultured in M199 medium containing 1% FBS for 6 hours. After adding capsiate or dihydrocapsiate at different concentrations (1 μM, 5 μM, 10 μM, 25 μM), followed by pre-culturing for 30 minutes, 10 ng/mL VEGF was added and the cells were cultured for 12 hours. The cells were collected and proteins obtained therefrom were quantitated and the expression level of the proteins was identified by Western blotting using antibodies of cyclin D1, cyclin E and cyclin A.

The next assay has as its system cyclin E. Nature of the assay: Cyclin expression, Western blotting: cyclin E. The assay is classed as cell-based, human. Conditions: HUVEC; 1, 5, 10, 25 μM; 10 ng/mL VEGF; 12 hours. The method, then: as §1
The test system of a further assay is VE-cadherin. Nature of the assay: VE-cadherin expression in the intercellular junction, immunofluorescence. The assay is classed as cell-based, human. Conditions: HUVEC; 5, 10, 25 μM pre-treatment; VEGF 50 ng/mL for 1 hour. The method, then: In order to identify if the change of permeability of endothelial cells is related with VE-cadherin, the level of VE-cadherin expression in the intercellular junction was investigated.
HUVEC were placed on a gelatin-coated cover slip at a concentration of 12×10^5 cells/well and cultured for 24 hours. After washing twice with M199 medium, the cells were cultured in M199 medium containing 1% for 6 hours. After treating with capsiate or dihydrocapsiate at different concentrations (5 μM, 10 μM, 25 μM) for 30 minutes, the cells were treated with VEGF (50 ng/mL) for 1 hour. The cells were fixed and made permeable by treating with 2% formaldehyde for 10 minutes, and washed 3 times with PBS. Subsequently, the cells were treated with 0.1% Triton X-100 and 2% bovine serum albumin (BSA)/PBS blocking solution for 30 minutes. After labeling with VE-cadherin at room temperature for 2 hours, followed by washing with PBS, the cells were labeled again with FITC-conjugated secondary antibody at room temperature for 1 hour and 30 minutes. The cover slip was mounted on SloFade (Molecular Probes) and observed under a fluorescence microscope (Carl Zeiss).

The next assay relates to aortic ring. The experiment in a line: Sprouting from the aortic ring. In kind it is cell-based, Sprague Dawley rat. Conditions: rat aortic ring in Matrigel; 6 days; evaluation 0 to 5 points. The method, then:
The degree of sprouting from the aortic ring caused by treatment with VEGF was investigated as follows in order to identify the effect of capsiate or dihydrocapsiate on VEGF-induced angiogenesis.
The aortic ring was prepared from the artery of Sprague Dawley rat (6-8 weeks old). The aortic ring was placed on a 48-well plate coated with 120 μL of Matrigel and 50 μL of Matrigel was further added. Then, 200 μL of a medium (human endothelial serum-free medium, Invitrogen, USA) containing capsiate or dihydrocapsiate and VEGF or a medium containing only VEGF was added. 6 days later, the cells were fixed, stained using Diff-Quick and subjected to evaluation (0 to 5 points) in a double blinded manner.

In the next assay the test system is JNK. The experiment in a line: MAPK signaling after UV, Western blotting: JNK. The assay is classed as cell-based, human. The note with it: HaCaT cells; 10, 25, 50 μM; 30 minutes after UV irradiation. The method, then:
Western blotting was performed in the same manner as in Example 2-1 in order to identify the factor that affects the COX-2 expression regulated by capsiate, except for treating the cells with capsiate at different concentrations (10 μM, 25 μM and 50 μM) prior to UV irradiation, and using rabbit anti-ERK antibody, rabbit anti-p-ERK antibody, rabbit anti-p38 antibody, rabbit anti-p-p38 antibody, rabbit anti-JNK antibody and rabbit anti-p-JNK antibody (cell signaling), and anti-rabbit IgG-HRP conjugation antibody (Zymed) as the secondary antibody, 30 minutes after UV irradiation.
(A western blot detects proteins with antibodies after separation by electrophoresis.)

The subject of a further assay is MMP-2. The experiment in a line: Zymography of secreted MMP-2 after UV. Conditions: HaCaT culture medium; 10, 25, 50 μM; UV 100 J/m^2; 36 hours. The assay is classed as cell-based, human. The method, then:
Zymography was carried out in order to investigate the decrease of expression and activity of MMP-2 and MMP-9 in protein level.
5×10^5 HaCaT cells were placed on a 60 mm Petri dish and cultured for 24 hours in DMEM containing 10% FBS. Subsequently, the cells were cultured for 24 hours in DMEM containing 1% FBS until starvation. Then, after treating with capsiate at different concentrations (10 μM, 25 μM, 50 μM) for 30 minutes, followed by washing 3 times with PBS, UV was irradiated at an intensity of 100 J/m^2. Immediately after the UV irradiation, the cells were washed again with PBS and further cultured for 36 hours in DMEM containing 1% FBS, which was treated with capsiate at the same concentration as in the pre-treatment. After collecting the culture medium, the activity of MMP-2 and MMP-9 proteins secreted from the cells into the medium was measured. To this end, the mediums obtained from the same number of cells were concentrated to the same volume, and the temperature was maintained at 4° C. in order to avoid the effect on the protein activity.
Thus prepared sample was subjected to electrophoresis at 4° C. using 7.5% acrylamide gel containing gelatin but without sodium dodecyl sulfate (SDS). […]

The subject of a further assay is hairless mouse. The experiment in a line: UV-induced erythema in hairless mouse. In kind it is in vivo. The note with it: 200 μL of 1 mM topically, UV 400, 600 and 800 J/m^2, 48 hours later. The method, then:
When the skin is exposed to UV, erythema, or […] of the skin, occurs accompanied by edema, prior to a variety of cellular changes including inflammation, apoptosis, carcinogenesis, or the like [Tadashi Terui, Hachiro Tagami, Mediators of inflammation involved in UVB erythema, Journal of Dermatological Science 23 Suppl. 1 (2000) S1S5]. In order to investigate the effect of capsiate on erythema accompanied by UV-induced inflammatory response, experiment was carried out as follows using hairless mouse. Test groups were as follows: non-treated group—treated with acetone only without UV irradiation; test group A—treated with 200 μL of 1 mM capsiate dissolved in acetone without UV irradiation; UV group—treated with acetone and UV; test group B—treated with UV and 200 μL of 1 mM capsiate dissolved in acetone every 24 hours.
Acetone or capsiate diluted in acetone was applied on the back of the mouse of each test group. 1 hour later, a mask was attached on the back of the mouse such that UV could be irradiated only on an area of 1.2 cm×1.2 cm. UV was irradiated at an intensity of 400, 600 and 800 J/m^2. The degree of erythema was measured 48 hours later.

Turning to `COc1cc(COC(=O)CCCCCCC(C)C)ccc1O` [dihydrocapsiate], the “VEGF-increased cyclin D1 expression in protein level” value with cyclin D1 is listed as “concentration-dependent decrease”. Also, the “VEGF-increased cyclin E expression in protein level” value in the assay on cyclin E was “concentration-dependent decrease”. The “cell adhesion ability of VE-cadherin in the intercellular junction” value in the assay with VE-cadherin was “recovered”. The “VEGF-promoted sprouting from the aortic ring” value with aortic ring is “inhibited the sprouting in a concentration-dependent manner”.
Turning to `COc1cc(COC(=O)CCCC/C=C/C(C)C)ccc1O` [capsiate], the “JNK (phosphorylation)” value in the assay with JNK is “no particular change”. In the assay on MMP-2, the “expression and activity of MMP-2 (zymography)” value is “inhibited expression and activity”; the “expression and activity of pro-MMP-2 (zymography)” value was “inhibited expression and activity”. For the same molecule, the degree of erythema entry in the assay with hairless mouse is given as “weaker”. The “VEGF-increased cyclin D1 expression in protein level” value in the assay with cyclin D1 is on record as “concentration-dependent decrease”. The “VEGF-increased cyclin E expression in protein level” value in the assay with cyclin E was “concentration-dependent decrease”. The “cell adhesion ability of VE-cadherin in the intercellular junction” value in the assay with VE-cadherin is recorded as “recovered”. In addition, in the assay on aortic ring, the “VEGF-promoted sprouting from the aortic ring” value is “inhibited the sprouting in a concentration-dependent manner”.

Values taken from US9572786B2, “Use of capsiate or dihydrocapsidate” (Catholic University Industry Academy Cooperation Foundation, priority 2007, dated 2017).
